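Test compounds were applied to cells in 96-well plates for 48 hours at 5 doses. TGI: concentration producing complete growth inhibition.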
Assays:
Test in all cases: NCI anticancer screen, dose series, 48 h
[1] = test system: NCI/ADR-RES ovarian
[2] = test system: SN12C renal
[3] = test system: EKVX NSCLC
[4] = test system: CCRF-CEM leukemia
[5] = test system: UO-31 renal
[6] = test system: NCI-H226 lung
[7] = test system: UACC-257 melanoma
[8] = test system: SF-295 CNS
[9] = test system: HOP-62 NSCLC
[10] = test system: BT-549 breast

SMILES | TGI [1] | TGI [2] | TGI [3] | TGI [4] | TGI [5] | TGI [6] | TGI [7] | TGI [8] | TGI [9] | TGI [10]
NCc1ccc(-c2ccc(-c3ccc(-c4ccc(CN)s4)s3)s2)s1 | > 100 µM | > 100 µM | > 100 µM | > 100 µM | > 100 µM | > 100 µM | > 100 µM | > 100 µM | > 100 µM | 
COC(=O)c1ccccc1C1CN=NC12Cc1ccc3ccccc3c1C2=O (stereo unspecified) | > 100 µM | > 100 µM | > 100 µM | > 100 µM | > 100 µM | > 100 µM | > 100 µM | > 100 µM |  | > 100 µM
CCOC(=O)CC(=O)NC1CC2CCC1(C)C2(C)C (stereo unspecified) | > 100 µM | > 100 µM | > 100 µM | > 100 µM | > 100 µM | > 100 µM | > 100 µM | > 100 µM | > 100 µM | > 100 µM
CC(=O)OCC1OC(On2ccccc2=S)C(OC(C)=O)C(OC(C)=O)C1OC(C)=O (stereo unspecified) | > 100 µM | > 100 µM | > 100 µM | 34.5 µM | > 100 µM |  | > 100 µM | > 100 µM | > 100 µM | > 100 µM
Cc1ccc(S(=O)ON2CCC(C(=O)O)(c3ccccc3)CC2)cc1 (stereo unspecified) | > 100 µM | > 100 µM | > 100 µM | > 100 µM | > 100 µM | > 100 µM | > 100 µM | > 100 µM | > 100 µM | > 100 µM
CCC1(C)C=Cc2c(cc(OC)c3c(=O)c4ccccc4n(C)c23)O1 (stereo unspecified) | > 10 µM | > 10 µM | > 10 µM | > 10 µM | 2.39 µM | > 10 µM | > 10 µM | > 10 µM | > 10 µM | > 10 µM
CCOC(=O)c1nc2cc(N3CCOCC3)c(F)cc2[nH]c1=O | > 100 µM | > 100 µM | > 100 µM | > 100 µM | > 100 µM | > 100 µM | > 100 µM | > 100 µM | > 100 µM | > 100 µM
O=C(NN=C1CCN(Cc2ccccc2)CC1)C(O)(c1ccccc1)c1ccccc1 | > 100 µM | > 100 µM | > 100 µM | > 100 µM | > 100 µM | > 100 µM | > 100 µM | > 100 µM | > 100 µM | 
CCN(CC)CCn1c(C(C)(C)C)nc2ccccc21 | > 100 µM | > 100 µM | > 100 µM | > 100 µM | > 100 µM | > 100 µM | > 100 µM | > 100 µM | > 100 µM | > 100 µM
NC(N)=NCCCC(N=c1c2ccccc2n(O)c2ccccc12)C(=O)O (stereo unspecified) |  | > 100 µM | > 100 µM | > 100 µM | > 100 µM | > 100 µM |  | > 100 µM | > 100 µM | 
CCOC(=O)CN1CCNCCN(CC(=O)OCC)CCNCC1 | > 100 µM | > 100 µM | > 100 µM | > 100 µM | > 100 µM | > 100 µM | > 100 µM | > 100 µM | > 100 µM | > 100 µM
CSc1ccc2c(cc1=O)[C@@H](NC(C)=O)CCc1cc(O)c(O)c(O)c1-2 | 58.3 µM | > 100 µM | > 100 µM | > 100 µM | 42.8 µM | 33.4 µM | > 100 µM | 31.2 µM | 32.3 µM | 56.9 µM
CCOC(=O)c1c(C)n(Cc2ccccc2)c(=O)c2ccccc2c(=O)c2c(=O)ccc(=O)c1=2 | > 100 µM | > 100 µM | > 100 µM | > 100 µM | 34.7 µM | > 100 µM | > 100 µM | > 100 µM | > 100 µM | 
COc1c(CC=C(C)C)c(O)c(C(CC(C)C)c2c(O)c(C(C)=O)c(O)c3c2OC(C(C)(C)O)C3)c(O)c1C(C)=O (stereo unspecified) | 12.2 µM | > 12.5 µM | 11.6 µM | > 12.5 µM | > 12.5 µM | > 12.5 µM | 9.32 µM |  |  | 10.6 µM
CN1CCCN2CCN(C)CCN(CC1)CC2 | > 100 µM | > 100 µM | > 100 µM | > 100 µM | > 100 µM |  | > 100 µM | > 100 µM | > 100 µM | > 100 µM
CCOC(=O)C1C(=O)CC(O)(OCC)C(C(=O)OCC)C1c1ccc(OC)cc1 (stereo unspecified) | > 100 µM | > 100 µM | > 100 µM | > 100 µM | > 100 µM | > 100 µM | > 100 µM | > 100 µM | > 100 µM | > 100 µM
Cc1ccc(-c2c(C#N)c(-c3ccc(Cl)cc3)c(C#N)c(=O)n2NS(=O)(=O)c2ccccc2)cc1 | > 100 µM | > 100 µM | > 100 µM | > 100 µM |  | > 100 µM | > 100 µM | > 100 µM | > 100 µM | > 100 µM
Cn1cc(C(=O)c2nccc3c2cnc2ccccc23)ccc1=O | > 100 µM | > 100 µM | > 100 µM | > 100 µM | > 100 µM | > 100 µM | > 100 µM | > 100 µM | > 100 µM | 
CCN1CC2=C(N=c3s/c(=C\c4ccc(Cl)cc4)c(=O)n3C2c2ccc(Cl)cc2)/C(=C/c2ccc(Cl)cc2)C1 (stereo unspecified) | > 100 µM |  | > 100 µM | > 100 µM | > 100 µM | > 100 µM | > 100 µM | > 100 µM | 90.4 µM | 85.8 µM
O=C(O)CC(C(=O)O)c1ccccc1[N+](=O)[O-] (stereo unspecified) | > 100 µM | > 100 µM | > 100 µM | > 100 µM | > 100 µM | > 100 µM | > 100 µM | > 100 µM | > 100 µM | > 100 µM
Cc1ccc(/C=C2\CN(C)CC3=C2OC(N)=C(C#N)C3c2ccc(C)cc2)cc1 (stereo unspecified) | > 100 µM | 35.3 µM | 56.5 µM | 22 µM | 53.4 µM | 72.4 µM | 43.1 µM | 46 µM | 52.7 µM | 40.1 µM
CCN(CC)C(=S)SS(=O)(=O)c1ccccc1C(=O)O | > 100 µM | > 100 µM | > 100 µM | > 100 µM | > 100 µM | > 100 µM | > 100 µM | > 100 µM | > 100 µM | > 100 µM

— PubChem BioAssay (NCI)
